Measurements published in ChEMBL document CHEMBL1201862, “PubChem BioAssay data set” (2004).
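Results reflect a 48-hour exposure of cells in 96-well plates to compound at five concentrations. Abbreviation: GI50, concentration required for 50% inhibition of growth.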 Active and inactive are the calls of the source. Rule as the data show it: active = GI50 up to about 1.1 µM and inactive = higher.

Assays:
Experiment in all cases: NCI-60 cell line screen, 48 h
[1] = test system: MDA-N
[2] = test system: SNB-75
[3] = test system: T47D
[4] = test system: HOP-92
[5] = test system: Malme-3M
[6] = test system: U-251
[7] = test system: COLO 205
[8] = test system: LOX IMVI
[9] = test system: CCRF-CEM
[10] = test system: OVCAR-5
[11] = test system: SK-MEL-5
[12] = test system: UACC-62
[13] = test system: PC-3
[14] = test system: SW-620
[15] = test system: K562
[16] = test system: SK-OV-3
[17] = test system: OVCAR-8
[18] = test system: SR
[19] = test system: NCI-H226
[20] = test system: A498

| Compound | GI50 [1] | GI50 [2] | GI50 [3] | GI50 [4] | GI50 [5] | GI50 [6] | GI50 [7] | GI50 [8] | GI50 [9] | GI50 [10] | GI50 [11] | GI50 [12] | GI50 [13] | GI50 [14] | GI50 [15] | GI50 [16] | GI50 [17] | GI50 [18] | GI50 [19] | GI50 [20] |
| --- | --- | --- | --- | --- | --- | --- | --- | --- | --- | --- | --- | --- | --- | --- | --- | --- | --- | --- | --- | --- |
| CC(=O)C(C(=O)C(C)(C)C)C(=O)C(C)(C)C | > 100 µM (inactive) | 59.4 µM (inactive) | > 100 µM (inactive) | > 100 µM (inactive) | > 100 µM (inactive) | > 100 µM (inactive) | > 100 µM (inactive) | > 100 µM (inactive) | > 100 µM (inactive) | > 100 µM (inactive) | > 100 µM (inactive) | > 100 µM (inactive) | > 100 µM (inactive) | > 100 µM (inactive) | > 100 µM (inactive) | > 100 µM (inactive) | > 100 µM (inactive) | > 100 µM (inactive) |  |  |
| COc1ccc2c(c1)O[C@@H]1C(O)Oc3cc(OC)c(OC)cc3[C@]1(O)C2=O (stereo partly specified) | 50.1 µM (inactive) | > 100 µM (inactive) | 31.2 µM (inactive) |  |  | 59 µM (inactive) | 95.1 µM (inactive) | 29.9 µM (inactive) | 38.9 µM (inactive) | > 100 µM (inactive) | 10.5 µM (inactive) | 78 µM (inactive) | 59.6 µM (inactive) | 88.7 µM (inactive) | 42.9 µM (inactive) | > 100 µM (inactive) | 94.6 µM (inactive) |  | 10.4 µM (inactive) | 82.6 µM (inactive) |
| COc1cc2c3c(c1)c1cc(OC)c(OC)cc1c[n+]3CC2 | 24.8 µM (inactive) |  | 5.35 µM (inactive) |  | 0.991 µM (active) | 2.22 µM (inactive) | 7.29 µM (inactive) | 28.7 µM (inactive) | > 50 µM (inactive) | > 50 µM (inactive) | 13.6 µM (inactive) | 19.1 µM (inactive) | 25.8 µM (inactive) | > 50 µM (inactive) | 10 µM (inactive) | > 50 µM (inactive) | 4.32 µM (inactive) | 21.8 µM (inactive) | 14.2 µM (inactive) | > 50 µM (inactive) |
| O=C1NC(=O)[C@@H](OCC2CCCCC2)[C@@H]2OCC3OC(C(O)C3O)C12 (stereo partly specified) | > 100 µM (inactive) |  | > 100 µM (inactive) |  | > 100 µM (inactive) |  | > 100 µM (inactive) | > 100 µM (inactive) | > 100 µM (inactive) | > 100 µM (inactive) | > 100 µM (inactive) | > 100 µM (inactive) | > 100 µM (inactive) | > 100 µM (inactive) |  | > 100 µM (inactive) | > 100 µM (inactive) | > 100 µM (inactive) | > 100 µM (inactive) | > 100 µM (inactive) |
| CC1=NNC(=O)C1C1(C(=O)O)CC(c2c[nH]c3ccccc23)=NC(=S)N1 (stereo unspecified) | 37.3 µM (inactive) | 16.6 µM (inactive) | 29 µM (inactive) | 22.3 µM (inactive) | 19 µM (inactive) | 26 µM (inactive) | 17.1 µM (inactive) | 17.5 µM (inactive) | 27.2 µM (inactive) | > 100 µM (inactive) | 14.4 µM (inactive) | 41.2 µM (inactive) | 27.5 µM (inactive) | 38.5 µM (inactive) | 25.4 µM (inactive) | 32.1 µM (inactive) | 39.4 µM (inactive) |  | 10.1 µM (inactive) | 94.8 µM (inactive) |
| CC1(C)CCC2(C(=O)OC3OC(CO)C(O)C(O)C3O)CCC3(C)C(=CCC4C5(C)CCC(OC6OC(CO)C(O)C(O)C6O)C(C)(C)C5CCC43C)C2C1 (stereo unspecified) |  | 11.2 µM (inactive) | 6.4 µM (inactive) | 7.74 µM (inactive) | 9.77 µM (inactive) | 4.49 µM (inactive) | 8.04 µM (inactive) | 4.51 µM (inactive) | 4.51 µM (inactive) | 24.1 µM (inactive) | 9.57 µM (inactive) | 8.67 µM (inactive) | 13.6 µM (inactive) | 8.83 µM (inactive) | 9.04 µM (inactive) | > 25 µM (inactive) | 15.8 µM (inactive) | 3.89 µM (inactive) | 10.5 µM (inactive) | > 25 µM (inactive) |
| Nc1cccc(Nc2nc3ccccc3nc2NS(=O)(=O)c2ccccc2)c1 | 33.4 µM (inactive) | 36.2 µM (inactive) | 24.7 µM (inactive) | 23.3 µM (inactive) | 28.6 µM (inactive) | 17.7 µM (inactive) | 15.8 µM (inactive) | 22.7 µM (inactive) | 15.2 µM (inactive) | 30.3 µM (inactive) | 15.4 µM (inactive) | 20.7 µM (inactive) | 19.5 µM (inactive) | 18.4 µM (inactive) | 21.1 µM (inactive) | 30.4 µM (inactive) | 30 µM (inactive) | 20.3 µM (inactive) | 38 µM (inactive) |  |
